Data: ChEMBL document CHEMBL2331287, “Inhibition of mTOR Kinase and Cancer Treatment” (ACS Med Chem Lett, 2013)
pIC50: −log10 of the molar value.

Experiments:
mTORC1 = mTORC1 (Homo sapiens, UniProt P42345); assay: Inhibition of mTORC1 in human PC3 cells assessed as reduction in phosphorylated 4E-BP1Thr37/46 level after 90 mins by immunofluorescence assay; type: cell-based, PC-3
[1] = Inhibition of mTORC2 in human PC3 cells assessed as reduction in phosphorylated AKT S473 level after 90 mins by immunofluorescence assay; type: cell-based; details: PC-3, 1.5 h

**Q.** With `O=C(c1nnc[nH]1)N1[C@@H]2CC[C@H]1C[C@H](c1nc3c(-c4ccc(-c5ncc[nH]5)nc4)cnn3c3[nH]ccc13)C2` as the molecule, how does the pIC50 (mTORC1) read?
**A.** 9.00

**Q.** What about the pIC50 [1] of the same molecule?
**A.** 9.00

**Q.** With `Cc1n[nH]c2c1c([C@@H]1C[C@H]3CC[C@@H](C1)N3C(=O)c1nnc[nH]1)nc1c(-c3ccc(-c4ccccc4)nc3)cnn12` as the molecule, how does the pIC50 (mTORC1) read?
**A.** 7.00

**Q.** And the pIC50 [1]?
**A.** 9.00
